Here are results for 16 molecules from ChEMBL document CHEMBL1147408, “Modulation of selective serotonin reuptake inhibitor and 5-HT1A antagonist activity in 8-aza-bicyclo[3.2.1]octane derivatives of 2,3-dihydro-1,4-benzodioxane” (Bioorg Med Chem Lett, 2004).

For experiment [1], the target named is T1, Adrenergic receptor alpha-1 (Rattus norvegicus, UniProt P15823+P23944+P43140).
T1 sequence (P15823 whole entry): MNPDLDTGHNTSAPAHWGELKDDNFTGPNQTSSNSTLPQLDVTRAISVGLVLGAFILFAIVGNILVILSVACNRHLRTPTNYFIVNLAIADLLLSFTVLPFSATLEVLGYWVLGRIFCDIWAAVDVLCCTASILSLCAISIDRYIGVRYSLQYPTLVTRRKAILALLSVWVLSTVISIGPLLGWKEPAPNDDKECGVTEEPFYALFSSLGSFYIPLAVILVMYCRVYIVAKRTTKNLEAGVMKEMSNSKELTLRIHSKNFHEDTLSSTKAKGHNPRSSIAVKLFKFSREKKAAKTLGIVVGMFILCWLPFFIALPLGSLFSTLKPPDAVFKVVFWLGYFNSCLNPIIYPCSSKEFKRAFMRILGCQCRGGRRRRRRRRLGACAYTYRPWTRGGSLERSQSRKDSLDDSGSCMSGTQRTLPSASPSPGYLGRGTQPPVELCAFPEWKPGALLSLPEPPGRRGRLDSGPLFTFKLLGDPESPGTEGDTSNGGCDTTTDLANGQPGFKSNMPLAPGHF
T1 sequence (P23944 whole entry): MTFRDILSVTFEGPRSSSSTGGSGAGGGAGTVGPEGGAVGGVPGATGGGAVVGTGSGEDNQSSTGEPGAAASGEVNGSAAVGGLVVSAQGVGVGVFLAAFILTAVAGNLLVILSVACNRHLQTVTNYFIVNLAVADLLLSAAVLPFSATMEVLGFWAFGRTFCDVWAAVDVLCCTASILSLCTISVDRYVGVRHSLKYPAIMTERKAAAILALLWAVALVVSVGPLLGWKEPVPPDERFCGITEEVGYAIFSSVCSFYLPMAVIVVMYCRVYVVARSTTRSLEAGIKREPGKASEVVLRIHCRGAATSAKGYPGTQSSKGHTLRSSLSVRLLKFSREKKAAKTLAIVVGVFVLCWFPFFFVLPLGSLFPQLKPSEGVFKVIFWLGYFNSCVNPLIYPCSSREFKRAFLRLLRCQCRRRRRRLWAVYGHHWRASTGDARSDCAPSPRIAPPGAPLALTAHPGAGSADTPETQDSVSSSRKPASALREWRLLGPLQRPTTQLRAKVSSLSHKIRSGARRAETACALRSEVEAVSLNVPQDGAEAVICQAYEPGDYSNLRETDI
T1 sequence (P43140 whole entry): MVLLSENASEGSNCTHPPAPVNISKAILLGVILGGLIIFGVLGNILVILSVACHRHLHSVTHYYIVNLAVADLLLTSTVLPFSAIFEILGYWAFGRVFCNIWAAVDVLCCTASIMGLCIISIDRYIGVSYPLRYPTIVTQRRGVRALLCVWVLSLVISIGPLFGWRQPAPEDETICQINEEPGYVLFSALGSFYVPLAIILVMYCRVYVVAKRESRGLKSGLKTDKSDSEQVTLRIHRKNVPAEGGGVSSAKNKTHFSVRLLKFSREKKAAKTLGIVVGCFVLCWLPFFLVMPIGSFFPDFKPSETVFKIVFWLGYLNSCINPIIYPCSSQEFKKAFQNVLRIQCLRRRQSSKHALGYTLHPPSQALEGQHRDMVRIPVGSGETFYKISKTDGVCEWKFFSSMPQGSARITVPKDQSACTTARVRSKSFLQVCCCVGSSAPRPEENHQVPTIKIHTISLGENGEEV
Briefly: Displacement of [3H]prazosin from alpha-1 adrenergic receptor. Format: protein assay. For orientation: Displacement assays read how much labelled ligand stays bound in the presence of the test substance.

The target of experiment [2] is Sodium-dependent serotonin transporter (Rattus norvegicus) (UniProt P31652). Briefly: Inhibition of serotonin transporter. The settings on record: concentration not given here. The arrangement: concentration or dose not given beside the values.
Experiment [3] has as its target T2, 5-hydroxytryptamine receptor 1A (Homo sapiens, UniProt P08908).
T2 sequence (P08908 whole entry): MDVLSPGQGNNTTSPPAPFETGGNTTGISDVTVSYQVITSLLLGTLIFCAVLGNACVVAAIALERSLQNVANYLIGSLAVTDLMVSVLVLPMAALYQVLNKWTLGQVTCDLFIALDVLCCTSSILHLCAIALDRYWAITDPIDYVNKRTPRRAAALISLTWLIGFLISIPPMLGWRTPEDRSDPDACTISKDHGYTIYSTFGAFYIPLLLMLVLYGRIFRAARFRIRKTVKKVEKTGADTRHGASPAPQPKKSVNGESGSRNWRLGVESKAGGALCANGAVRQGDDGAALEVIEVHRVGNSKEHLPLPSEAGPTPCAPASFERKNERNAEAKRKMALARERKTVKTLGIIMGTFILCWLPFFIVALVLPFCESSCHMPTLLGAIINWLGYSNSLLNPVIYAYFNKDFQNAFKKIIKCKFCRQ
Briefly: Displacement of [3H]8-OH-DPAT from human 5-hydroxytryptamine 1A receptor expressed in CHO cells. Format: cell-based.

The target in experiment [4] is T3, Sodium-dependent serotonin transporter (Homo sapiens, UniProt P31645). Briefly: Inhibitory activity of compound against serotonin transport by RB5-5-HT transporter.
In experiment [5] the target is T4, 5-hydroxytryptamine receptor 1A (Homo sapiens) (UniProt P08908).
T4 sequence (whole entry): T2 sequence (P08908 whole entry)
Briefly: Inhibition of [3H]8-OH-DPAT binding to human 5-hydroxytryptamine 1A receptor at 1000 nM compound concentration.

Experiment [6] has as its target T3, Sodium-dependent serotonin transporter. Briefly: Inhibitory activity of compound against serotonin transport by HC5-5-HT transporter.
In experiment [7] the target is T2, 5-hydroxytryptamine receptor 1A. Briefly: Agonistic activity of compound towards 5-hydroxytryptamine 1A receptor was evaluated by forskolin stimulated cAMP assay. Format: functional. A general note: cAMP levels reflect the balance of adenylyl cyclase and phosphodiesterase activity.
Experiment [8] concerns the target T4, 5-hydroxytryptamine receptor 1A (Homo sapiens). Briefly: (§1) Agonistic activity of compound towards 5-hydroxytryptamine 1A receptor was evaluated by [35S]GTP-gamma-S, stimulated cAMP assay. Format: functional.
Experiment [9] addresses T2, 5-hydroxytryptamine receptor 1A. Described as §1. Format: functional.
Experiment [10] addresses Adrenergic receptor alpha-1 (Homo sapiens) (UniProt P35348+P25100+P35368). Briefly: Inhibition of [3H]prazosin binding to alpha-1 adrenergic receptor at 100 nM compound concentration. In kind it is protein assay.

Broadly, the Ki is the equilibrium dissociation constant of an inhibitor or competing ligand from its target. For orientation: inhibition means the drop in the measured response relative to a control, in per cent. As usually defined, the IC50 is the concentration needed to halve the response being measured. By Emax is commonly meant the maximal effect, on the per cent scale that the assay sets.

Sequence of Sodium-dependent serotonin transporter (Rattus norvegicus) (P31652 whole entry): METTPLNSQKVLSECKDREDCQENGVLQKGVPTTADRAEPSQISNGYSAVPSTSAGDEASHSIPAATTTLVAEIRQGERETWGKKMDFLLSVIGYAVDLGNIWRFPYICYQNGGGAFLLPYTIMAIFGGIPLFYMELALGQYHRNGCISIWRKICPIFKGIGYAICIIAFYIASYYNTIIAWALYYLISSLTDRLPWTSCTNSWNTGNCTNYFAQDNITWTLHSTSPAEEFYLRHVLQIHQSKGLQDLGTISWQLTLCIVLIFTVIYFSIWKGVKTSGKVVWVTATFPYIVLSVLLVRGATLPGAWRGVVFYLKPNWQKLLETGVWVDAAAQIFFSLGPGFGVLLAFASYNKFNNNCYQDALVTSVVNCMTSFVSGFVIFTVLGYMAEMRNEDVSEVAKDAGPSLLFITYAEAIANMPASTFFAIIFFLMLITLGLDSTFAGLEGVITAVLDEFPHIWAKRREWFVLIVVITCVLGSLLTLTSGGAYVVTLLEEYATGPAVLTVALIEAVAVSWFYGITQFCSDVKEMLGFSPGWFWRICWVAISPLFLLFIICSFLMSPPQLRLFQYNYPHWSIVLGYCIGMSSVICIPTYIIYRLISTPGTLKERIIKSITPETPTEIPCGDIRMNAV
T3 sequence (P31645 whole entry): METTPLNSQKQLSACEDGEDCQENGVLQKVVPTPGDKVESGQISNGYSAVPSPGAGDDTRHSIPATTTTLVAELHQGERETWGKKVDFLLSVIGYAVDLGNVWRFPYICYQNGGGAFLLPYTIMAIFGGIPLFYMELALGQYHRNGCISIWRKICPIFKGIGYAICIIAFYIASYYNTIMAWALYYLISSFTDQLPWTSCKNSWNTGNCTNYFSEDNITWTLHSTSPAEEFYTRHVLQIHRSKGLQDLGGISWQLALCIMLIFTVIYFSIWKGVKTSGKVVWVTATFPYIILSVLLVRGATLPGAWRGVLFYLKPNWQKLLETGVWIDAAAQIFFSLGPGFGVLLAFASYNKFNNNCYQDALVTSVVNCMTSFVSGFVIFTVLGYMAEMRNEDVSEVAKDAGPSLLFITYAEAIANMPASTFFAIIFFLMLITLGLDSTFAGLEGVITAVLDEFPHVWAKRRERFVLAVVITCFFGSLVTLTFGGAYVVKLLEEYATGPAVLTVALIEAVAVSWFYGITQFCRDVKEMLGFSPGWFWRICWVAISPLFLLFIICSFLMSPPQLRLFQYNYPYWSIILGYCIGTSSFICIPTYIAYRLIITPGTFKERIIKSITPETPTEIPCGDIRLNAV

Turning to `CCOc1cccc2c1O[C@@H](CN1[C@@H]3CC[C@H]1C[C@](O)(c1ccccn1)C3)CO2`, the values for the Ki in experiment [1] and in experiment [3] were 147 nM and 61.6 nM, respectively. Besides, the inhibition in experiment [2] was 6%.

For `CCOc1cccc2c1O[C@@H](CN1[C@@H]3CC[C@H]1C[C@](O)(c1cccc(C(F)(F)F)c1)C3)CO2`, the inhibition constant Ki was determined as 12.9 nM in [1] and 2.92 nM in experiment [3]. This molecule yielded an inhibition in experiment [2] of 0%.

As for `COc1cccc2c1O[C@@H](CN1C3C=C(c4ccc5ccccc5c4)CC1CC3)CO2` (stereo partly drawn), the inhibition constant Ki in [4] stood at 1.4 nM; in [1], 229 nM. Also, the inhibition in experiment [5] came to 43%. Moreover, the half-maximal inhibitory concentration (IC50) in [6] worked out at 767 nM.

Take `COc1cccc2c1O[C@@H](CN1C3C=C(c4ccc(Cl)c(Cl)c4)CC1CC3)CO2` (stereo partly drawn): the results for the Ki in [4] and in [1] were 4.69 nM and greater than 1000 nM, respectively. The molecule further gave an inhibition in experiment [5] of 35%. This molecule displayed an IC50 in experiment [6] of 260 nM.

On to `COc1cccc2c1O[C@@H](CN1[C@@H]3CC[C@H]1C[C@](O)(c1csc4ccccc14)C3)CO2`, for which the results for the IC50 in experiment [7] and in experiment [9] were 130 nM and 36 nM, respectively. For the same molecule, the Ki in [1] turned out to be 106 nM; in experiment [3], 1.6 nM. In experiment [8], the Emax came out at 0%. The Imax in experiment [8] is 92%. The inhibition in experiment [2] amounted to 0%.

As for `COc1cccc2c1O[C@@H](CN1C3C=C(c4cccc5cccnc45)CC1CC3)CO2` (stereo partly drawn), the inhibition constant (Ki) in [4] was found to be 33 nM; in experiment [1], 46.2 nM; in experiment [3], 307 nM. The 50% inhibitory concentration (IC50) in experiment [6] was determined as 109 nM.

`COc1cccc2c1O[C@@H](CN1[C@@H]3CC[C@H]1C[C@](O)(c1ccc4ccccc4c1)C3)CO2`: the IC50 in experiment [7] came out at 21 nM; in experiment [9], 9.85 nM. Besides, the values for the Ki in [1] and in experiment [3] were 42 nM and 0.81 nM, respectively. Further, the Imax in experiment [8] was 100%.

As for `CCOc1cccc2c1O[C@@H](CN1[C@@H]3CC[C@H]1C[C@](O)(c1csc4ccccc14)C3)CO2`, the Ki in [1] stood at 123.5 nM; in experiment [3], 16.7 nM. For the same molecule, the inhibition in experiment [2] stood at 4%.

For the molecule `CCOc1cccc2c1O[C@@H](CN1[C@@H]3CC[C@H]1C[C@](O)(c1ccc4ccccc4c1)C3)CO2`, the values for the Ki in experiment [1] and in [3] were 103.5 nM and 5.87 nM, respectively. The molecule further showed an inhibition in [2] of 0%.

Consider `COc1cccc2c1O[C@@H](CN1[C@@H]3CC[C@H]1C[C@](O)(c1cccc(C(F)(F)F)c1)C3)CO2`, for which the Ki in experiment [1] amounted to 9.9 nM; in experiment [3], 0.33 nM. The Emax in experiment [8] is 90%. This molecule gave an inhibition in experiment [2] of 9%.

`COc1cccc2c1O[C@@H](CN1[C@@H]3CC[C@H]1C[C@](O)(c1ccccn1)C3)CO2` yielded an Imax in experiment [8] of 100%. Further, the concentration for half-maximal inhibition (IC50) in experiment [9] was 1480 nM. For the same molecule, the inhibition in experiment [2] is 0%. Further, the inhibition constant (Ki) in [3] worked out at 46 nM.

As for `COc1cccc2c1O[C@@H](CN1C3C=C(n4ccc5cc(F)ccc54)CC1CC3)CO2` (stereo partly drawn), the results for the Ki in [4], in experiment [1] and in experiment [3] were 8.5 nM, 71 nM and 128 nM, respectively. In addition, half-maximal inhibition in experiment [6] (IC50) was put at 138 nM.

On to `CCOc1cccc2c1O[C@@H](CN1[C@@H]3CC[C@H]1C[C@](O)(c1ccccc1)C3)CO2`, for which the inhibition constant Ki is 32.7 nM in [1] and 3.05 nM in experiment [3]. The inhibition in experiment [2] amounted to 0%.

For `COc1cccc2c1O[C@@H](CN1[C@@H]3CC[C@H]1C[C@](O)(c1ccccc1)C3)CO2`, the IC50 stood at 21 nM in experiment [7] and 25 nM in [9]. The same molecule had an Imax in [8] of 100%. In addition, the inhibition in [2] is 0%. The same molecule registered a Ki in experiment [3] of 1.53 nM.

`COc1ccccc1[C@]1(O)C[C@H]2CC[C@@H](C1)N2C[C@H]1COc2cccc(OC)c2O1`: the Emax in experiment [8] was 40%. The inhibition in experiment [2] is 12%. In addition, in experiment [3], the affinity corresponds to a Ki of 39 nM.

On to `COc1cccc2c1O[C@@H](CN1C3C=C(c4cccc5ccccc45)CC1CC3)CO2` (stereo partly drawn), for which the results for the inhibition constant (Ki) in experiment [4] and in experiment [3] were 26 nM and 357 nM, respectively. This molecule registered a half-maximal inhibitory concentration (IC50) in [6] of 951 nM. This molecule displayed an inhibition in [10] of 26%.
